Columns and labels:
Format in all cases: in vivo, human
[1] = tested on: adult subjects with schizophrenia; test: PANSS general psychopathology subscale score, Clinical Study Two; settings: for Change from Baseline in General Psychopathology Subscale Score, Mean (SD) / Change from Baseline in General Psychopathology Subscale Score, Median / Trt Effect (bifeprunox - placebo), General Psychopathology Subscale Score / mean change (SD) from Baseline to Endpoint in PANSS general psychopathology subscale score: LOCF; for Change from Baseline in General Psychopathology Subscale Score, Mean (SD) / Change from Baseline in General Psychopathology Subscale Score, Median / Trt Effect (bifeprunox - placebo), General Psychopathology Subscale Score: ITT population; for Trt Effect (bifeprunox - placebo), General Psychopathology Subscale Score: ANCOVA; for PANSS general psychopathology subscale score, treatment effect (bifeprunox—placebo): Endpoint LOCF; for mean change (SD) from Baseline to Endpoint in PANSS general psychopathology subscale score: ITT
Description: Rating scale assessments were performed weekly, except for week 5, to measure the change from baseline to endpoint of the PANSS total score. Other assessments included: PANSS positive symptom subscale score, PANSS negative symptom subscale score, PANSS general pschopathology subscale score, BPRS total score, BPRS psychosis score, the CGI-S score, the CGI-I score, responder rates based on the PANSS total score, and the Calgary Depression Scale for Schizophrenia (CDSS). […]
Subjects who completed this study had the option to continue in the long-term. […] Risperidone-treated subjects were titrated from 2 mg to 6 mg daily over a three-day period and were subsequently maintained at 6 mg/day for the remainder of the treatment period. […] Blood samples were also obtained at Screening/Baseline, Week 3, and Week 6 for clinical laboratory assessments.

[2] = tested on: adult subjects with schizophrenia; test: PANSS negative symptom subscale score, Clinical Study Three; settings: for Change from Baseline in PANSS Negative Symptom Subscale Score, Mean (SD) / Change from Baseline in PANSS Negative Symptom Subscale Score, Median / Trt Effect (bifeprunox - placebo), PANSS Negative Symptom Subscale Score / mean change (SD) from Baseline to Endpoint in PANSS Negative Symptom subscale score: LOCF; for Change from Baseline in PANSS Negative Symptom Subscale Score, Mean (SD) / Change from Baseline in PANSS Negative Symptom Subscale Score, Median / Trt Effect (bifeprunox - placebo), PANSS Negative Symptom Subscale Score: ITT population; for Trt Effect (bifeprunox - placebo), PANSS Negative Symptom Subscale Score: ANCOVA; for PANSS Negative Symptom subscale score, treatment effect (bifeprunox—placebo): Endpoint LOCF; for mean change (SD) from Baseline to Endpoint in PANSS Negative Symptom subscale score: ITT
Description: (§1) SECONDARY OBJECTIVES To assess the efficacy of bifeprunox in treating schizophrenia using the Positive Symptom sub-scale score of the PANSS, the Negative Symptom sub-scale score of the PANSS, the General Psychopathology sub-scale of the PANSS, Brief Psychiatric Rating Scale (BPRS) total score derived from the PANSS, BPRS psychosis score derived from the PANSS, the Clinical Global Impression Severity of Illness score (CGI-S), the Clinical Global Impression Improvement score (CGI-I), CGI-I responder rate, PANSS responder rate based on the PANSS total score, Calgary Depression Scale for Schizophrenia (CDSS), and Subject Satisfaction rating.
(§2) There were four treatment arms in this study, approximately 144 subjects per arm. […] After completing the Single-Blind Placebo Lead-in Period of at least three days, bifeprunox-treated subjects were titrated from 0.25 mg up to 20 mg/day or 30 mg/day according to a standardized titration scheme over a seven- or eight-day period, respectively. When the assigned dose was reached, subjects were maintained at that dose for the remainder of the six week treatment period. […] Subjects were hospitalized (if not already inpatients) after eligibility for study entry was verified, starting from the Screening Visit until at least 10 days after Baseline. Subjects could be hospitalized longer than 10 days if considered medically necessary by the Investigator. Rating scale assessments for efficacy and abnormal movement disorders were done weekly except for Week 5. […] Subject satisfaction with study medication was assessed at Week 6.

[3] = tested on: adult subjects with schizophrenia; test: CGI Severity of Illness score, Clinical Study Three; settings: for CGI Severity of Illness Score, Trt Effect / Change from Baseline in CGI Severity of Illness Score, Mean (SD) / Change from Baseline in CGI Severity of Illness Score, Median / mean change (SD) from Baseline to Endpoint in CGI severity of illness score: LOCF; for CGI severity of illness score, treatment effect (bifeprunox—placebo): Endpoint LOCF; for mean change (SD) from Baseline to Endpoint in CGI severity of illness score: ITT
Description: as §1, §2

[4] = Bifeprunox 30 mg, Week 6/Endpoint
[5] = Bifeprunox 40 mg, Week 6/Endpoint
[6] = Bifeprunox 20 mg, Week 6/Endpoint

O=c1[nH]c2cccc(N3CCN(Cc4cccc(-c5ccccc5)c4)CC3)c2o1 [Bifeprunox, 7-[4-([1,1′-biphenyl]-3-ylmethyl)-1-piperazinyl]-2(3H)-benzoxazolone]
Change from Baseline in General Psychopathology Subscale Score, Mean (SD) ([1]; Bifeprunox 30 mg, Week 3): −5.8 (9.2) | Change from Baseline in General Psychopathology Subscale Score, Median ([1]; Bifeprunox 30 mg, Week 3): −5 | Change from Baseline in General Psychopathology Subscale Score, Mean (SD) ([1]; Bifeprunox 30 mg, Week 4): −6.1 (9.7) | Change from Baseline in General Psychopathology Subscale Score, Median ([1]; Bifeprunox 30 mg, Week 4): −5 | Change from Baseline in General Psychopathology Subscale Score, Mean (SD) [1, 4]: −6.0 (10.2) | Change from Baseline in General Psychopathology Subscale Score, Median [1, 4]: −5 | Trt Effect (bifeprunox - placebo), General Psychopathology Subscale Score [1, 4]: −2.5 | Change from Baseline in General Psychopathology Subscale Score, Mean (SD) ([1]; Bifeprunox 40 mg, Week 1): −2.7 (5.9) | Change from Baseline in General Psychopathology Subscale Score, Median ([1]; Bifeprunox 40 mg, Week 1): −2 | Change from Baseline in General Psychopathology Subscale Score, Mean (SD) ([1]; Bifeprunox 40 mg, Week 2): −3.4 (7.9) | Change from Baseline in General Psychopathology Subscale Score, Median ([1]; Bifeprunox 40 mg, Week 2): −3 | Change from Baseline in General Psychopathology Subscale Score, Mean (SD) ([1]; Bifeprunox 40 mg, Week 3): −3.8 (8.8) | Change from Baseline in General Psychopathology Subscale Score, Median ([1]; Bifeprunox 40 mg, Week 3): −3 | Change from Baseline in General Psychopathology Subscale Score, Mean (SD) ([1]; Bifeprunox 40 mg, Week 4): −3.4 (9.3) | Change from Baseline in General Psychopathology Subscale Score, Median ([1]; Bifeprunox 40 mg, Week 4): −2 | Change from Baseline in General Psychopathology Subscale Score, Mean (SD) [1, 5]: −3.8 (10.1) | Change from Baseline in General Psychopathology Subscale Score, Median [1, 5]: −3 | Trt Effect (bifeprunox - placebo), General Psychopathology Subscale Score [1, 5]: −0.7 | PANSS general psychopathology subscale score, treatment effect (bifeprunox—placebo) ([1]; bifeprunox 30 mg): −2.5 | mean change (SD) from Baseline to Endpoint in PANSS general psychopathology subscale score ([1]; bifeprunox 30 mg): −6.0 (10.2) | PANSS general psychopathology subscale score, treatment effect (bifeprunox—placebo) ([1]; bifeprunox 40 mg): −0.7 | mean change (SD) from Baseline to Endpoint in PANSS general psychopathology subscale score ([1]; bifeprunox 40 mg): −3.8 (10.1) | Change from Baseline in PANSS Negative Symptom Subscale Score, Mean (SD) ([2]; Bifeprunox 20 mg, Week 1): −1.5 (3.0) | Change from Baseline in PANSS Negative Symptom Subscale Score, Median ([2]; Bifeprunox 20 mg, Week 1): −1 | Change from Baseline in PANSS Negative Symptom Subscale Score, Mean (SD) ([2]; Bifeprunox 20 mg, Week 2): −2.7 (3.6) | Change from Baseline in PANSS Negative Symptom Subscale Score, Median ([2]; Bifeprunox 20 mg, Week 2): −3 | Change from Baseline in PANSS Negative Symptom Subscale Score, Mean (SD) ([2]; Bifeprunox 20 mg, Week 3): −3.2 (4.4) | Change from Baseline in PANSS Negative Symptom Subscale Score, Median ([2]; Bifeprunox 20 mg, Week 3): −3 | Change from Baseline in PANSS Negative Symptom Subscale Score, Mean (SD) ([2]; Bifeprunox 20 mg, Week 4): −3.3 (4.8) | Change from Baseline in PANSS Negative Symptom Subscale Score, Median ([2]; Bifeprunox 20 mg, Week 4): −3 | Change from Baseline in PANSS Negative Symptom Subscale Score, Mean (SD) [2, 6]: −3.3 (5.0) | Change from Baseline in PANSS Negative Symptom Subscale Score, Median [2, 6]: −3 | Trt Effect (bifeprunox - placebo), PANSS Negative Symptom Subscale Score [2, 6]: −0.9 | Change from Baseline in PANSS Negative Symptom Subscale Score, Mean (SD) ([2]; Bifeprunox 30 mg, Week 1): −1.3 (4.0) | Change from Baseline in PANSS Negative Symptom Subscale Score, Median ([2]; Bifeprunox 30 mg, Week 1): −1 | Change from Baseline in PANSS Negative Symptom Subscale Score, Mean (SD) ([2]; Bifeprunox 30 mg, Week 2): −1.9 (4.3) | Change from Baseline in PANSS Negative Symptom Subscale Score, Median ([2]; Bifeprunox 30 mg, Week 2): −1 | Change from Baseline in PANSS Negative Symptom Subscale Score, Mean (SD) ([2]; Bifeprunox 30 mg, Week 3): −2.5 (4.8) | Change from Baseline in PANSS Negative Symptom Subscale Score, Median ([2]; Bifeprunox 30 mg, Week 3): −2 | Change from Baseline in PANSS Negative Symptom Subscale Score, Mean (SD) ([2]; Bifeprunox 30 mg, Week 4): −2.6 (5.0) | Change from Baseline in PANSS Negative Symptom Subscale Score, Median ([2]; Bifeprunox 30 mg, Week 4): −2 | Change from Baseline in PANSS Negative Symptom Subscale Score, Mean (SD) [2, 4]: −3.1 (5.2) | Change from Baseline in PANSS Negative Symptom Subscale Score, Median [2, 4]: −2 | Trt Effect (bifeprunox - placebo), PANSS Negative Symptom Subscale Score [2, 4]: −0.6 | PANSS Negative Symptom subscale score, treatment effect (bifeprunox—placebo) ([2]; bifeprunox 20 mg): −0.9 | mean change (SD) from Baseline to Endpoint in PANSS Negative Symptom subscale score ([2]; bifeprunox 20 mg): −3.3 (5.0) | PANSS Negative Symptom subscale score, treatment effect (bifeprunox—placebo) ([2]; bifeprunox 30 mg): −0.6 | mean change (SD) from Baseline to Endpoint in PANSS Negative Symptom subscale score ([2]; bifeprunox 30 mg): −3.1 (5.2) | CGI Severity of Illness Score, Trt Effect ([3]; 20 mg versus placebo, Week 6/Endpoint): −0.13 | Change from Baseline in CGI Severity of Illness Score, Mean (SD) ([3]; 20 mg, Week 1): −0.23 (0.63) | Change from Baseline in CGI Severity of Illness Score, Median ([3]; 20 mg, Week 1): 0.0 | Change from Baseline in CGI Severity of Illness Score, Mean (SD) ([3]; 20 mg, Week 2): −0.48 (0.81) | Change from Baseline in CGI Severity of Illness Score, Median ([3]; 20 mg, Week 2): 0.0 | Change from Baseline in CGI Severity of Illness Score, Mean (SD) ([3]; 20 mg, Week 3): −0.59 (0.89) | Change from Baseline in CGI Severity of Illness Score, Median ([3]; 20 mg, Week 3): −1.0 | Change from Baseline in CGI Severity of Illness Score, Mean (SD) ([3]; 20 mg, Week 4): −0.65 (0.95) | Change from Baseline in CGI Severity of Illness Score, Median ([3]; 20 mg, Week 4): −1.0 | Change from Baseline in CGI Severity of Illness Score, Mean (SD) ([3]; 20 mg, Week 6/Endpoint): −0.63 (0.98) | Change from Baseline in CGI Severity of Illness Score, Median ([3]; 20 mg, Week 6/Endpoint): −1.0 | CGI Severity of Illness Score, Trt Effect ([3]; 30 mg versus placebo, Week 6/Endpoint): −0.09 | Change from Baseline in CGI Severity of Illness Score, Mean (SD) ([3]; 30 mg, Week 1): −0.26 (0.60) | Change from Baseline in CGI Severity of Illness Score, Median ([3]; 30 mg, Week 1): 0.0 | Change from Baseline in CGI Severity of Illness Score, Mean (SD) ([3]; 30 mg, Week 2): −0.41 (0.76) | Change from Baseline in CGI Severity of Illness Score, Median ([3]; 30 mg, Week 2): 0.0 | Change from Baseline in CGI Severity of Illness Score, Mean (SD) ([3]; 30 mg, Week 3): −0.50 (0.90) | Change from Baseline in CGI Severity of Illness Score, Median ([3]; 30 mg, Week 3): 0.0 | Change from Baseline in CGI Severity of Illness Score, Mean (SD) ([3]; 30 mg, Week 4): −0.57 (0.89) | Change from Baseline in CGI Severity of Illness Score, Median ([3]; 30 mg, Week 4): −1.0 | Change from Baseline in CGI Severity of Illness Score, Mean (SD) ([3]; 30 mg, Week 6/Endpoint): −0.62 (1.03) | Change from Baseline in CGI Severity of Illness Score, Median ([3]; 30 mg, Week 6/Endpoint): −1.0 | CGI severity of illness score, treatment effect (bifeprunox—placebo) ([3]; bifeprunox 20 mg): −0.13 | mean change (SD) from Baseline to Endpoint in CGI severity of illness score ([3]; bifeprunox 20 mg): −0.63 (0.98) | CGI severity of illness score, treatment effect (bifeprunox—placebo) ([3]; bifeprunox 30 mg): −0.09 | mean change (SD) from Baseline to Endpoint in CGI severity of illness score ([3]; bifeprunox 30 mg): −0.62 (1.03)
